# Source: US20140357512A1, “HISTONE DEACETYLASE (HDAC) BIOMARKERS IN MULTIPLE MYELOMA” (priority 2013, published 2014)
# Test system: human myeloma cell line MM.1S
# Assay: SILAC acetylated-lysine peptide profiling, HDAC inhibitor vs DMSO (light/heavy ratio)
# Format: cell-based
# Source text: An embodiment of the invention comprises utilizing the SILAC method in order to quantitate changes in protein expression between two or more populations of cells. The SILAC method is a technique based on mass spectrometry that detects differences in protein abundance among samples using non-radioactive isotopic labeling. The SILAC method is known in the art, and described in detail in Ong et al., “Stable Isotope Labeling by Amino Acids in Cell Culture, SILAC, as a Simple and Accurate Approach to Expression Proteomics”, Molecular & Cellular Proteomics, vol. 1, pp. 376-386 (2002), which is incorporated herein by reference in its entirety.
# Briefly, the SILAC method involves growing two populations of cells in cell culture. The first population of cells is grown in growth media containing normal amino acids (“normal media”). The second population of cells is grown in media lacking a standard essential amino acid (such as lysine), but is then supplemented with a non-radioactive, isotopically labeled form of that essential amino acid (such as lysine labeled with ^13C atoms, rather than normal ^12C atoms), which is called “heavy media”. When the two populations of cells are each growing in the medium, they incorporate the amino acids into all of their proteins. The growth of cells maintained in the heavy media is no different from that in normal media. All peptides containing the heavy amino acids are heavier than their normal counterparts. The cells from each of the two populations of cells are lysed. The lysates from each of the two cell populations are then combined. The combined cell lysates are then analyzed by mass spectrometry. Pairs of chemically identical peptides of different stable isotope composition can be differentiated in a mass spectrometer due to their difference in mass. The ratio of peak intensities in the mass spectrum for such peptide pairs reflects the abundance ratio for the two proteins.
# This example describes SILAC studies that were performed to compare the effects of three different HDAC inhibitors (Compound A, Compound B, and tubastatin A) to a control on a human multiple myeloma cell line. The HDAC inhibitors were also compared amongst themselves to determine differences in their effects.
# A human myeloma cell line MM.1S was grown using either ^12C (light) or ^13C (heavy) lysine containing culture medium. The “heavy” cells were treated with DMSO as the control, and the “light” cells were treated with a single HDAC inhibitor at 37° C. for 6 hours. The heavy and light cells were lysed, and the lysates were mixed in 1:1 ratio and digested with the protease trypsin. The acetylated lysine containing peptides (due to the action of the HDAC inhibitor) in the digested peptide pool were captured by a non-specific anti-acetylated lysine antibody cocktail (the antibodies identify both light and heavy acetylated peptides), and subjected to mass spectrometry analysis in order to identify thousands of individual peptides.
# Thousands of peptides were identified in pairs (^12C and ^13C) due to their known mass differences. The amino acid sequence and quantitative ratio (Light/Heavy) of a given peptide in two differentially treated cell lysates were then determined and annotated with their possible protein (gene) sources.
# As stated above, three HDAC inhibitors (Compound A, Compound B, and Tubastatin A) were used. Thus, the SILAC method was performed three times, with a different HDAC inhibitor compared to a control each time. Accordingly, there are three pairs of quantitative data in the table below, i.e., Compound A:DMSO, Compound B:DMSO, and Tubastatin A:DMSO. A cut-off of 1.30 fold of change (increase or decrease) was then used to determine “changed” or “+” in the table, and any peptides with a fold of change less than 1.3 fold were determined to be “unchanged” or “0” in the table. Those peptides that were not identified were marked as “NA” in the table. […]
structure (smiles),measurement,setting,value
CN1CCc2c(c3ccccc3n2Cc2ccc(C(=O)NO)cc2)C1 [Tub A],light to heavy ratio (L/H ratio) of acetylated peptide YFDEK(ac)IAK (SEQ ID NO: 563),"D-beta-hydroxybutyrate dehydrogenase mitochondrial [280], gene BDH1, inhibitor:DMSO",0.00 log 2
same,"light to heavy ratio (L/H ratio) of acetylated peptide, log 2 scale","DAAGSGDK(ac)PGADTGR (SEQ ID NO: 185), 39S ribosomal protein L53 mitochondrial [105], MRPL53",0.38
same,"light to heavy ratio (L/H ratio) of acetylated peptide, log 2 scale","DAISGIGTDEK(ac)CLIEILASR (SEQ ID NO: 128), Annexin A6 [113], ANXA6",0.67
same,L/H ratio of acetylated peptide FK(ac)DPNCVGTVLASR (SEQ ID NO: 30),"DAZAP1 [59], log 2 scale, drug vs DMSO",−0.51
same,"light to heavy ratio (L/H ratio) of acetylated peptide, log 2 scale","DCDHADEQK(ac)CYSCGEFGHIQK (SEQ ID NO: 145), Isoform 1 of Cellular nucleic acid-binding protein [118], CNBP",−0.38
same,L/H ratio of acetylated peptide APTIVGK(ac)SSLNPILFR (SEQ ID NO: 31),"DDOST [189], log 2 scale, drug vs DMSO",−0.51
same,L/H ratio of acetylated peptide FGNPGEK(ac)LVK (SEQ ID NO: 34),"DDX5 [40], log 2 scale, drug vs DMSO",0.45
same,L/H ratio of acetylated peptide DWVLNEFK(ac)HGK (SEQ ID NO: 33),"DDX5 [388], log 2 scale, drug vs DMSO",−0.41
same,L/H ratio of acetylated peptide FEK(ac)NFYVEHPEVAR (SEQ ID NO: 32),"DDX17 [132], log 2 scale, drug vs DMSO",−0.42
same,"light to heavy ratio (L/H ratio) of acetylated peptide, log 2 scale","DELGDYLK(ac)PK (SEQ ID NO: 184), 39S ribosomal protein L46 mitochondrial [265], MRPL46",−0.96
same,L/H ratio of acetylated peptide,"DHPLPEVAHVK(ac)HLSASQK (SEQ ID NO: 381), Cytochrome c oxidase subunit 4 isoform 1 mitochondrial [53], COX4I1",0.00 log 2
same,"light to heavy ratio (L/H ratio) of acetylated peptide, log 2 scale","DK(ac)TQYIFNNMVLK (SEQ ID NO: 182), Alpha-mannosidase 2 [191], MAN2A1",−0.45
same,L/H ratio of acetylated peptide ELNK(ac)ILEGR (SEQ ID NO: 2),"DLAT [466], log 2 scale, drug vs DMSO",0.45
same,"light to heavy ratio (L/H ratio) of acetylated peptide, log 2 scale","DLEK(ac)WQNNLLPSR (SEQ ID NO: 211), 40S ribosomal protein 515a [88], RPS15A",−0.46
same,"light to heavy ratio (L/H ratio) of acetylated peptide, log 2 scale","DLMTDLK(ac)SEISGDLAR (SEQ ID NO: 129), Annexin A6 [418], ANXA6",0.42
same,L/H ratio of acetylated peptide VVK(ac)HPIFER (SEQ ID NO: 35),"DNAJB11 [247], log 2 scale, drug vs DMSO",−0.91
same,"light to heavy ratio (L/H ratio) of acetylated peptide, log 2 scale","DSGNK(ac)PPGLLPR (SEQ ID NO: 160), Isoform 1 of Glutathione S-transferase kappa 1 [54], GSTK1",0.47
same,"light to heavy ratio (L/H ratio) of acetylated peptide, log 2 scale","DVK(ac)FGADAR (SEQ ID NO: 173), 60 kDa heat shock protein mitochondrial [31], HSPD1",−0.66
same,L/H ratio of acetylated peptide SFDSEFK(ac)LACK (SEQ ID NO: 8),"DYNC1H1 [4283], log 2 scale, drug vs DMSO",0.44
same,light to heavy ratio (L/H ratio) of acetylated peptide LNLDK(ac)MMEQK (SEQ ID NO: 603),"Dihydrolipoyl dehydrogenase mitochondrial [122], gene DLD, inhibitor:DMSO",0.00 log 2
same,light to heavy ratio (L/H ratio) of acetylated peptide DTYIENEK(ac)LISGK (SEQ ID NO: 352),"Dolichyl-diphosphooligosaccharide--protein glycosyltransferase subunit 1 precursor [626], RPN1, drug:DMSO",0.00 log 2
same,light to heavy ratio (L/H ratio) of acetylated peptide YNIEK(ac)DIAAHIK (SEQ ID NO: 553),"Dynein light chain 1 cytoplasmic [36], gene DYNLL1, inhibitor:DMSO",0.00 log 2
same,light to heavy ratio (L/H ratio) of acetylated peptide YNIEK(ac)DIAAYIK (SEQ ID NO: 331),"Dynein light chain 2 cytoplasmic [36], DYNLL2, drug:DMSO",0.00 log 2
same,"light to heavy ratio (L/H ratio) of acetylated peptide, log 2 scale","EAALEPSMEK(ac)IFK (SEQ ID NO: 157), cDNA FLJ59630 highly similar to Growth hormone-inducible transmembrane protein [76], GHITM",−0.68
same,"light to heavy ratio (L/H ratio) of acetylated peptide, log 2 scale","EDQK(ac)PVMDDQR (SEQ ID NO: 141), Isoform 1 of HLA class I histocompatibility antigen gamma chain [14], CD74",−0.79
same,L/H ratio of acetylated peptide TSK(ac)NK(ac)SSLSR (SEQ ID NO: 14),"EP300 [1558:1560], log 2 scale, drug vs DMSO",0.42
same,"light to heavy ratio (L/H ratio) of acetylated peptide, log 2 scale","EQEHMINWVEK(ac)HVVQSISTQQEK (SEQ ID NO: 132), ATP synthase subunit b mitochondrial [221], ATP5F1",0.77
same,"light to heavy ratio (L/H ratio) of acetylated peptide, log 2 scale","EVHK(ac)QVVESAYEVIK (SEQ ID NO: 181), Isoform 1 of L-lactate dehydrogenase A chain [232], LDHA",−0.67
same,"light to heavy ratio (L/H ratio) of acetylated peptide, log 2 scale","EVQTNDLK(ac)EVVNK (SEQ ID NO: 223), 40S ribosomal protein S3a [182], SNORD73A, RPS3A",−0.60
same,light to heavy ratio (L/H ratio) of acetylated peptide TFK(ac)GVVDVVMK (SEQ ID NO: 550),"Elongation factor G 2 mitochondrial precursor [265], gene GFM2, inhibitor:DMSO",0.00 log 2
same,light to heavy ratio (L/H ratio) of acetylated peptide KSDYIK(ac)LYVR (SEQ ID NO: 315),"Endoplasmin [410], HSP90B1, drug:DMSO",−0.70 log 2
same,light to heavy ratio (L/H ratio) of acetylated peptide EK(ac)NLLHVTDTGVGMTR (SEQ ID NO: 314),"Endoplasmin[ 142], HSP90B1, drug:DMSO",−0.84 log 2
same,light to heavy ratio (L/H ratio) of acetylated peptide EVEEDEYK(ac)AFYK (SEQ ID NO: 261),"Endoplasmin[ 356], HSP90B1, drug:DMSO",−0.89 log 2
same,light to heavy ratio (L/H ratio) of acetylated peptide K(ac)EELTLEGIR (SEQ ID NO: 510),"Eukaryotic initiation factor 4A-I [238], gene EIF4A1, inhibitor:DMSO",0.00 log 2
same,light to heavy ratio (L/H ratio) of acetylated peptide SHLAK(ac)EGLYQYK (SEQ ID NO: 533),"Eukaryotic translation initiation factor 3 subunit A [68], gene EIF3A, inhibitor:DMSO",0.00 log 2
same,"light to heavy ratio (L/H ratio) of acetylated peptide, log 2 scale","FEK(ac)EQQQLNWK (SEQ ID NO: 179), Isoform Long of Integrin beta-7 [763], ITGB7",−0.47
same,"light to heavy ratio (L/H ratio) of acetylated peptide, log 2 scale","FFTVK(ac)LPVALDPGAK (SEQ ID NO: 209), Dolichyl-diphosphooligosaccharide--protein glycosyltransferase subunit 1 precursor [155], RPN1",−0.39
same,L/H ratio of acetylated peptide,"FGIAAK(ac)YQLDPTASISAK (SEQ ID NO: 479), Isoform 2 of Voltage-dependent anion-selective channel protein 2 [224], VDAC2",0.00 log 2
same,"light to heavy ratio (L/H ratio) of acetylated peptide, log 2 scale","FLNAENAQK(ac)FK (SEQ ID NO: 200), Ran-specific GTPase-activating protein [150], RANBP1",−0.68
same,"light to heavy ratio (L/H ratio) of acetylated peptide, log 2 scale","FLTK(ac)GDNNAVDDR (SEQ ID NO: 218), Putative signal peptidase complex catalytic subunit SEC11B [101], SEC11B",0.82
same,"light to heavy ratio (L/H ratio) of acetylated peptide, log 2 scale","FNQK(ac)GEVYK (SEQ ID NO: 149), Lipoamide acyltransferase component of branched-chain alpha-keto acid dehydrogenase complex mitochondrial [435], DBT",0.39
same,"light to heavy ratio (L/H ratio) of acetylated peptide, log 2 scale","FWNK(ac)FLENK (SEQ ID NO: 187), NADH dehydrogenase [ubiquinone] 1 beta subcomplex subunit 6 [49], NDUFB6",0.54
same,light to heavy ratio (L/H ratio) of acetylated peptide AVDLIQK(ac)HK (SEQ ID NO: 546),"Flap endonuclease 1 [252], gene FEN1, inhibitor:DMSO",0.00 log 2
same,L/H ratio of acetylated peptide TCEESSFCK(ac)R (SEQ ID NO: 36),"GANAB [48], log 2 scale, drug vs DMSO",−0.51
